Test results taken from patent US20040072770A1, “Methods for specifically inhibiting histone deacetylase-7 and 8” (priority 2002, published 2004).
Entries after “also recorded” stand apart in the source; their conditions may differ. d = 2'-deoxy (DNA); m = 2'-O-methyl

How the values were obtained:
HDAC-1 = HDAC-1 (Homo sapiens, UniProt Q13547); test: Enzyme inhibitory activity, HD1; assay type: biochemical; conditions: read-out: IC50 HD 1
HDAC-4 = HDAC-4 (Homo sapiens, UniProt P56524); test: Enzyme inhibitory activity, HD4; assay type: biochemical
HDAC-8 = target: T1, HDAC-8 (Homo sapiens, UniProt Q9BY41); test: Enzyme inhibitory activity, HD8; assay type: biochemical; conditions: read-out: IC50 HD 8
T1 sequence (Q9BY41 1-377): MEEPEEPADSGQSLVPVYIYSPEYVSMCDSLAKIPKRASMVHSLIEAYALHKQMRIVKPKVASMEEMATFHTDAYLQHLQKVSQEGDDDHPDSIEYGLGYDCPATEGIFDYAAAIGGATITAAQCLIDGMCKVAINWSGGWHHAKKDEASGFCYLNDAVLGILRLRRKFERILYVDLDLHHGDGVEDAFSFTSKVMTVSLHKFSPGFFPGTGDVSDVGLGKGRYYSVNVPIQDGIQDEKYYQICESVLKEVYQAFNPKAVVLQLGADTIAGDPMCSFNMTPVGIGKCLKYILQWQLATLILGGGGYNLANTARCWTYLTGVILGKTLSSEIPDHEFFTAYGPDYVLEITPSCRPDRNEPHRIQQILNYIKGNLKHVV

[1] = tested on: colon cancer cells HCT116; test: MTT assay, HCT116; assay type: cell-based, human; conditions: 72 hours; read-out: IC50 HCT 116 (MTT)
Description: Effects of HDAC isotype-specific small molecule inhibitors on growth inhibition of various human cancer cells (from ATCC) in vitro were determined by MTT assays. Briefly, cells seeded in 96-well plates were incubated for 72 hours at 37° C. in a 5% CO2 incubator. MTT (Sigma) was added at a final concentration of 0.5 mg/ml and incubated with the cells for 4 hours before an equal volume of solubilization buffer (50% N,N-dimethylformamide, 20% SDS, pH 4.7) was added onto cultured cells. After overnight incubation, solubilized dye was quantified by colorimetric reading at […] using a reference at 630 nM. OD values were converted to cell numbers according to a standard growth curve of the relevant cell line. The concentration which reduces cell numbers to 50% of those of DMSO-treated cells is determined as MTT IC50. In Table 4, IC50s of several HDAC7 or HDAC8 inhibitors in MTT assays in various human cancer cell lines were listed. They include colon cancer cells HCT116 and SW48, lung cancer cells A549 and H446, breast cancer cells MCF-7 and MDAmb231, a prostate cancer cell line Du145 and a bladder cancer cell line T24.

Du145 cells = test: Growth inhibition by antisense oligos, Du145; assay type: cell-based, human; conditions: 50 nM, 48 hour, vs cells treated with lipofectin
Description: (§1) For all ex vivo oligo treatment, human A549 human […] carcinoma cells were seeded in 10 cm tissue culture dishes one day prior to oligonucleotide treatment. The cell lines were obtained from the American Type Culture Collection (ATCC) (Manassas, Va.) and were grown under the recommended culture conditions. Before the addition of the oligonucleotides, cells were washed with PBS (phosphate buffered saline). Next, lipofectin transfection reagent (GIBCO BRL Mississauga, Ontario, Calif.), at a concentration of 6.25 μg/ ml, was added to serum free OPTIMEM medium (GIBCO BRL, Rockville, Md.), which was then added to the cells. The oligonucleotides were added directly to the cells (i.e., one oligonucleotide per plate of cells). Mismatched oligonucleotides were used as controls. The same concentration of oligonucleotide (e.g., 50 nM) was used per plate of cells for each oligonucleotide tested.
(§2) In order to determine the effect of HDAC ODNs on cell growth inhibition and cell death through apoptosis, A549, T24, DuI45, HCT116 cells (ATCC, Manassas, Va.), or HMEC cells (BioWhittaker, Walkersville, Md.) were treated with HDAC ODNs as previously described.
(§3) For the cell growth inhibition analysis, human cancer or normal cells were treated with 50 nM of paired AS or MM oligos directed against human HDAC-1, HDAC-7 or HDAC-8for up to 96 hours. Cell numbers were counted every day by trypan blue exclusion. Percentage of inhibition was calculated as (100 - AS cell numbers/control cell numbers)%.

human HDAC-8 mRNA = test: HDAC-8 mRNA expression in A549 cells, Northern blot; assay type: cell-based; conditions: 24 hours
Description: (§4) To identify antisense oligodeoxynucleotides (ODN) capable of inhibiting HDAC-8 expression in human cancer cells, fourteen phosphorothioate ODNs containing sequences complementary to the 5′ or 3′ UTR of the human […] (GenBank Accession No. AF230097) were initially screened in A549 cells at 100 nM. Cells were harvested after 24 hours of treatment, and HDAC-8 RNA expression was analyzed by Northern blot analysis. […] Total RNAs were harvested and were analyzed by Northern Blot. GAPDH expression was analyzed to indicate total RNA loading in each lane.
(§5) In order to determine the dose response of HDAC7 antisense inhibitors to reduce HDAC7 message at the mRNA level, Human A549 cells were treated with 25 or 50 nM of antisense (AS1 and AS2) oligos directed against human HDAC-7 or the corresponding mismatch of AS1 (MM1) oligo or an universal mismatch (UMM) for 24 hours. […] The time dependence of HDAC7 antisense inhibitors on blocking HDAC7 gene expression at the mRNA level was analyzed by treating A549 cells with 50 nM AS1 or MM1 oligos. […] Similarly, A549 cells were treated with 25 nM or 50 nM of AS1 or AS2 oligos directed against human HDAC-8 or its MM oligo for AS2 (MM2) for 24 hours. AS-2 oligo against human HDAC8 at 50 nM was also used to treat A549 cells for 24 or 48 hours.
as §1
(§6) Cells were harvested, and total RNAs were analyzed by Northern blot analysis. Briefly, total RNA was extracted using RNeasy miniprep columns (QIAGEN Canada, Mississauga, Ontario). Ten to twenty […] of total RNA was run on a formaldehyde-containing 1% agarose gel with 0.5 M sodium phosphate (pH 7.0) as the buffer system. RNAs were then transferred to nitrocellulose membranes and hybridized with the indicated radiolabeled DNA probes. Autoradiography was performed using conventional procedures.

A549 cells = test: Growth inhibition by antisense oligos, A549; assay type: cell-based, human; conditions: 50 nM, 48 hour, vs cells treated with lipofectin
Description: as §1, §2, §3

human HDAC-7 mRNA = test: HDAC-7 mRNA expression in A549 cells, Northern blot; assay type: cell-based; conditions: for HDAC-7 RNA expression, initial screen: 100 nM; for HDAC-7 RNA expression, initial screen / HDAC-7 mRNA expression, dose response (FIG. 1): 24 hours; for HDAC-7 mRNA expression, dose response (FIG. 1): 25 or 50 nM
Description: as §4, with “oligodeoxynucleotide” for “oligodeoxynucleotides”, “HDAC-7” for “HDAC-8”, “eighteen” for “fourteen”, “AF239243)” for “AF230097)”
as §5, §1, §6

human HDAC-7 protein = test: HDAC-7 protein expression in A549 cells, SDS-PAGE and antibody probing; assay type: cell-based; conditions: 25 or 50 nM, 48 hours (time course 24 or 48 hours)
Description: In order to determine whether treatment with HDAC ODNs would inhibit HDAC protein expression, human A549 cancer cells were treated with 25 or 50 nM of paired antisense or its mismatch oligos directed against human HDAC-7 for 48 hours. ODN treatment conditions were as previously described.
Cells were lysed in buffer containing 1% Triton X-100, 0.5% sodium deoxycholate, 5 mM EDTA, 25 mM Tris-HCl, pH 7.5, plus protease inhibitors. Total protein was quantified by the protein assay reagent from Bio-Rad (Hercules, Calif.). 100 ug of total protein was analyzed by SDS-PAGE. Next, total protein was transferred onto a PVDF membrane and probed with HDAC-7-specific primary antibodies.

p21 protein = p21 protein expression in A549 cells; assay type: cell-based, human

Chain of HDAC-1 (Q13547 whole entry): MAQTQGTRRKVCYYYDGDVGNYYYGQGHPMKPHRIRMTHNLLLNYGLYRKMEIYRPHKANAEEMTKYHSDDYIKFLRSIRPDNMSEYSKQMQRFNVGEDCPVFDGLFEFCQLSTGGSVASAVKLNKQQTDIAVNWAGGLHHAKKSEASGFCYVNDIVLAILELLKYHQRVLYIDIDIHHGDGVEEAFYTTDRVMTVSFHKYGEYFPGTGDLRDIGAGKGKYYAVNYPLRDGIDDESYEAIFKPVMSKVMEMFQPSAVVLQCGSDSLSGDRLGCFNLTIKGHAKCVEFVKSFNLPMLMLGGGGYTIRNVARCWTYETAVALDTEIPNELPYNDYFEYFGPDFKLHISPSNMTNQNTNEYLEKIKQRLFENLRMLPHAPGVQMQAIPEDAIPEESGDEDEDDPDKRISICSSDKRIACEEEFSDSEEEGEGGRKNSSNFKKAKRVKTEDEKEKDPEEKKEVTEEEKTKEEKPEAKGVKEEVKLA
Chain of HDAC-4 (P56524 whole entry): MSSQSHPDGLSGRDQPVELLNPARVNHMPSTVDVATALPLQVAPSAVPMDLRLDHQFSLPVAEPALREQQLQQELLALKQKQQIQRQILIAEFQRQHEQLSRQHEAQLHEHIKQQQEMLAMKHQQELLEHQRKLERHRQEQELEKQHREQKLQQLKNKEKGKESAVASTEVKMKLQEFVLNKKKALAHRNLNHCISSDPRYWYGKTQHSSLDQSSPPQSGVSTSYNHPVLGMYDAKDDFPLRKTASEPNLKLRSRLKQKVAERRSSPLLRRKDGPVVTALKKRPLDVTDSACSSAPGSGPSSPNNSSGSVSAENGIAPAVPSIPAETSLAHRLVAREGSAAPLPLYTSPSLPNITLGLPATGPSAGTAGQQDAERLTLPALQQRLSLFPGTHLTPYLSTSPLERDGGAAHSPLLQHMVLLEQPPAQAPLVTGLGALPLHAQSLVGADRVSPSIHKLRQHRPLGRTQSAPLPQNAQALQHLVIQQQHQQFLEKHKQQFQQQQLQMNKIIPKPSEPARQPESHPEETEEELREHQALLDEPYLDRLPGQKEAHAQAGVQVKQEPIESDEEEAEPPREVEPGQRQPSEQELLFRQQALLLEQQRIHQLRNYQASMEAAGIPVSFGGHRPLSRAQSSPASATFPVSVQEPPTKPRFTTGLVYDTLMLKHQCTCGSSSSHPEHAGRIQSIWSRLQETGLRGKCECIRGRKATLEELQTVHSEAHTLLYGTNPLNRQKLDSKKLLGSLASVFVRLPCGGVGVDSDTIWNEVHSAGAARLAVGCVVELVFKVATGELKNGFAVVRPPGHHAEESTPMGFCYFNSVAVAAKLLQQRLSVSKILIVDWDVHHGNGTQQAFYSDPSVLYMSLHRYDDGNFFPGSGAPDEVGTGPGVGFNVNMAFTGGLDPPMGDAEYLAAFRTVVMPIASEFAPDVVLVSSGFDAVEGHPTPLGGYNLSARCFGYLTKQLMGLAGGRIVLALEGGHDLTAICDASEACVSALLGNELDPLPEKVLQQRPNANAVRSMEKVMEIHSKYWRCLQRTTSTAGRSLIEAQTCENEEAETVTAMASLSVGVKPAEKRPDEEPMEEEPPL

CC(C=CC(=O)NO)=CC(C)Cc1ccc(N(C)C)cc1 (stereo not shown) [Compound 4, N-Hydroxy-4,6-dimethyl-7-[(4-N,N-dimethylaminophenyl)]-2,4-heptadienamide]
IC50 (HDAC-1): 2 µM
IC50 (HDAC-4): > 10 µM
IC50 (HDAC-8): 0.4 µM
IC50 [1]: 6 µM

5′-CGCUTTCCTTGTCATTGACA-3′ (sugars from the 5' end m4 d12 m4, all phosphorothioate, methylation of C not given here) [HD3 AS1, antisense oligo, Human HDAC3 3′-UTR]
Growth Inhibition Du145 (Du145 cells): + (“+” means >35% inhibition of cell growth by antisense oligos (50 nM, 48 hour) compared to that of cells treated with lipofectin)

5′-CUCCGGCTCCTCCATCUUCC-3′ (sugars from the 5' end m4 d12 m4, all phosphorothioate, methylation of C not given here) [HDAC8 AS1, antisense oligo, Human HDAC8 5′-UTR]
HDAC-8 mRNA expression, dose response (FIG. 5) (human HDAC-8 mRNA; 25 nM or 50 nM): inhibited in a dose-dependent manner
HDAC-8 RNA expression, initial screen (human HDAC-8 mRNA; 100 nM): good antisense activities

5′-CAGGCTCACTTGACAAUGGC-3′ (sugars from the 5' end m4 d12 m4, all phosphorothioate, methylation of C not given here) [HD7 AS1, antisense oligo, Human HDAC7 5′-UTR]
Growth Inhibition A549 (A549 cells): + (“+” means >35% inhibition of cell growth by antisense oligos (50 nM, 48 hour) compared to that of cells treated with lipofectin)
Growth Inhibition Du145 (Du145 cells): + (“+” means >35% inhibition of cell growth by antisense oligos (50 nM, 48 hour) compared to that of cells treated with lipofectin)
HDAC-7 mRNA expression, time course (FIG. 3) (human HDAC-7 mRNA; 50 nM): significantly block gene expression of human HDAC7 at the mRNA level by 24 hours
HDAC-7 RNA expression, initial screen (human HDAC-7 mRNA): good antisense activities
HDAC-7 mRNA expression, dose response (FIG. 1) (human HDAC-7 mRNA; listed as HDAC7 AS1): can inhibit human HDAC7 expression at the mRNA level; also recorded: inhibited in a dose-dependent manner
HDAC-7 protein expression (FIG. 2, FIG. 4) (human HDAC-7 protein): inhibited
p21 protein expression (FIG. 2) (p21 protein): induced

5′-CUUCAGCCAGGATGCCCACA-3′ (sugars from the 5' end m4 d12 m4, all phosphorothioate, methylation of C not given here) [HDAC7 AS2, antisense oligo, Human HDAC7 3′-UTR]
HDAC-7 RNA expression, initial screen (human HDAC-7 mRNA): good antisense activities
HDAC-7 mRNA expression, dose response (FIG. 1) (human HDAC-7 mRNA): can inhibit human HDAC7 expression at the mRNA level; also recorded: inhibited in a dose-dependent manner
HDAC-7 protein expression (FIG. 2, FIG. 4) (human HDAC-7 protein): inhibited
p21 protein expression (FIG. 2) (p21 protein): induced

5′-GCAGCGGCGGCAGCACCUCC-3′ (sugars from the 5' end m4 d12 m4, all phosphorothioate, methylation of C not given here) [HD5 AS1, antisense oligo, Human HDAC5 5′-UTR]
Growth Inhibition Du145 (Du145 cells): + (“+” means >35% inhibition of cell growth by antisense oligos (50 nM, 48 hour) compared to that of cells treated with lipofectin)
